Test results: US7365069B2, “Pyrimidone derivatives” (Bexel Pharmaceuticals Inc., priority 2002, dated 2008)

Tests used:
COX-2 = target: T1, COX-2 (Homo sapiens, UniProt P35354); experiment: Human whole blood assay, COX-2 inhibition (PGE2 ELISA after LPS); format: cell-based; details: 0.25 μM, LPS 24 h
T1 construct: incubation of human blood with lipopolysaccharide (LPS), which induces COX-2 production in the blood; endogenous in cells; host or cells: fresh human whole blood from volunteers, treated with aspirin and then LPS
T1 sequence (P35354 18-604): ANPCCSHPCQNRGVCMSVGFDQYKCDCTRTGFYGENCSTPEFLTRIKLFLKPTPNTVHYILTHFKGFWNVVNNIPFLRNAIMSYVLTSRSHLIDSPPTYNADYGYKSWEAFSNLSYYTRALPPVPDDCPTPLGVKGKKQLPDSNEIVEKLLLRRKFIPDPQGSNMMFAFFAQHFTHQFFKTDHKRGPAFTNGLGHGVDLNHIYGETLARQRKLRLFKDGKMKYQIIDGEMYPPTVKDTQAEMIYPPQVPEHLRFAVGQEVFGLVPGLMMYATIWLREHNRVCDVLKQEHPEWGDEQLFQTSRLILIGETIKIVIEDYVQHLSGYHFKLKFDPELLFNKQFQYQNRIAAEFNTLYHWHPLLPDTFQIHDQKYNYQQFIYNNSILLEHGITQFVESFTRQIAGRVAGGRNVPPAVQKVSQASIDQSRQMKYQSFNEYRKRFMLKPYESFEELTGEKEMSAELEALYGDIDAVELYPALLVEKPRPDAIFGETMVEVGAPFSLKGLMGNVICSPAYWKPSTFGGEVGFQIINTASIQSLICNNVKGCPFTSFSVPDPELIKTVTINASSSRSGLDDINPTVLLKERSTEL
Protocol: In Vivo Evaluation of Cyclooxygenase-2 (COX-2) Inhibition Activity
The COX-2 inhibition activities of the compounds illustrated in the examples are determined by the following method.
Human whole blood provides a protein and cell rich milieu appropriate for the study of biochemical efficacy of anti-inflammatory compounds such as selective COX-2 inhibitors. […] This is correlating with the observation that COX-2 inhibitors have no effect on prostaglandin E2 (PGE2) production in normal blood. These inhibitors are active only after incubation of human blood with lipopolysaccharide (LPS), which induces COX-2 production in the blood.
Fresh blood is collected in tubes containing potassium EDTA by vein puncture from make volunteers. The subjects should have no apparent inflammatory conditions and not taken NSAIDs for at least 7 days prior to blood collection. Blood is treated with aspirin in vitro (10 μg/ml, at time zero) to inactivate COX-1, and then with LPS (10 μg/ml) along with test agents or vehicle. The blood is incubated for 24 h at 37° C., after which the tubes are centrifuged, the plasma is separated and stored at −80° C. (J. Pharmacol. Exp. Ther, 271, 1705, 1994; Proc. Natl. Acad. Sci. USA., 96, 7563, 1999). The plasma is assayed for PGE2 using Cayman ELISA kit as per the procedure outlined by the manufacturer (Cayman Chemicals, Ann Arbor, USA).

TNF-α = TNF-α production in LPS-stimulated human whole blood; format: cell-based; details: LPS 4 h
Protocol: Tumor Necrosis Factor Alpha (TNF-α)
This assay determines the effect of test compounds on the production of TNF-α in human whole blood. TNF-α assay is carried out as described by Armin hatzelmann and Christian Schudt (J Pharm Exp Ther 297, 261, 2001). Compounds are tested for their ability to inhibit the activity of TNF-α in human whole blood. The test compounds are pre-incubated for 15 minutes at 37° C. and then stimulated with Lipopolysaccharide (Salmonella abortus equi, 1 μg/ml) for 4 h at 37° C. in 5% CO2. The levels of TNF-α are estimated using Enzyme linked Immunosorbent assay performed in a 96 well format as per the procedure of the manufacturer (Cayman Chemical, Ann Arbor, USA).

Structure (SMILES)	melting point [°C]	other results
COc1cc(-n2c(-c3ccc(SC)cc3)nc(SC)c(C#N)c2=O)cc(OC)c1OC [Example 13, 5-cyano-1-(3,4,5-trimethoxyphenyl)-4-(methylthio)-2-[4-(methylthio)phenyl]-6-oxo-1,6-dihydropyrimidine]	192 to 195	inhibition at 0.25 µM (COX-2): 33.5%
CCc1ccc(-n2c(-c3ccc(SC)cc3)nc(SC)c(C#N)c2=O)cc1 [Example 14, 5-cyano-1-(4-ethylphenyl)-4-(methylthio)-2-[4-(methylthio)phenyl]-6-oxo-1,6-dihydropyrimidine]	223 to 225	inhibition at 0.25 µM (COX-2): 28.2%
CSc1ccc(-c2nc(SC)c(C#N)c(=O)n2-c2ccc(Br)cc2)cc1 [Example 15, 1-(4-bromophenyl)-5-cyano-4-(methylthio)-2-[4-(methylthio)phenyl]-6-oxo-1,6-dihydropyrimidine]	213 to 215	inhibition at 0.1 µM (TNF-α): 18.4%
CSc1ccc(-c2nc(SC)c(C#N)c(=O)n2-c2ccc(C)cc2C)cc1 [Example 19, 5-cyano-1-(2,4-dimethylphenyl)-4-(methylthio)-2-[4-(methylthio)phenyl]-6-oxo-1,6-dihydropyrimidine]	203 to 205	–
CSc1ccc(-n2c(-c3ccc(C)cc3)nc(SC)c(C#N)c2=O)cc1 [Example 20, 5-cyano-2-(4-methylphenyl)-4-(methylthio)-1-[4-(methylthio)phenyl]-6-oxo-1,6-dihydropyrimidine]	230 to 233	inhibition at 1 µM (TNF-α): 61.4%; inhibition at 0.25 µM (COX-2): 7.67%
CSc1nc(-c2ccccc2)n(-c2ccc(C)cc2)c(=O)c1C#N [Example 23, 5-cyano-1-(4-methylphenyl)-4-(methylthio)-6-oxo-2-phenyl-1,6-dihydropyrimidine]	258 to 260	–
CCCCc1ccc(-n2c(-c3ccc(SC)cc3)nc(SC)c(C#N)c2=O)cc1 [Example 24, 1-(4-n-butylphenyl)-5-cyano-4-(methylthio)-2-[4-(methylthio)phenyl]-6-oxo-1,6-dihydropyrimidine]	138 to 141	–
CSc1nc(-c2ccncc2)n(-c2ccc(F)cc2)c(=O)c1C#N [Example 25, 5-cyano-1-(4-fluorophenyl)-4-(methylthio)-6-oxo-2-pyridin-4-yl-1,6-dihydropyrimidine]	301 to 303	inhibition at 1 µM (TNF-α): 59.6%
COc1ccc(-n2c(-c3ccccn3)nc(SC)c(C#N)c2=O)cc1 [Example 31, 5-cyano-4-(methylthio)-1-(4-methoxyphenyl)-6-oxo-2-pyridin-2-yl-1,6-dihydropyrimidine]	246 to 253	inhibition at 0.1 µM (TNF-α): 20.2%
CSc1nc(-c2ccccn2)n(-c2ccc(C)c(C)c2)c(=O)c1C#N [Example 32, 5-cyano-4-(methylthio)-1-(3,4-dimethylphenyl)-6-oxo-2-pyridin-2-yl-1,6-dihydropyrimidine]	218 to 223	inhibition at 0.1 µM (TNF-α): 17.9%
CCc1ccc(-n2c(-c3ccccn3)nc(SC)c(C#N)c2=O)cc1 [Example 33, 5-cyano-4-(methylthio)-1-(4-ethylphenyl)-6-oxo-2-pyridin-2-yl-1,6-dihydropyrimidine]	172 to 175	–
CSc1nc(-c2ccccn2)n(-c2ccc(C)cc2)c(=O)c1C#N [Example 34, 5-cyano-4-(methylthio)-1-(4-methylphenyl)-6-oxo-2-pyridin-2-yl-1,6-dihydropyrimidine]	247 to 248	–
CCOc1ccc(-n2c(-c3ccncc3)nc(SC)c(C#N)c2=O)cc1 [Example 35, 5-cyano-4-(methylthio)-1-(4-ethoxyphenyl)-6-oxo-2-pyridin-4-yl-1,6-dihydropyrimidine]	201 to 204	–
CSc1nc(-c2ccncc2)n(-c2ccc(C)cc2)c(=O)c1C#N [Example 36, 5-cyano-4-(methylthio)-1-(4-methylphenyl)-6-oxo-2-pyridin-4-yl-1,6-dihydropyrimidine]	> 250	–
CSc1nc(-c2ccncc2)n(-c2ccc(C(C)C)cc2)c(=O)c1C#N [Example 37, 5-cyano-4-(methylthio)-1-(4-isopropylphenyl)-6-oxo-2-pyridin-4-yl-1,6-dihydropyrimidine]	173 to 175	–
CCc1ccc(-n2c(-c3cccnc3)nc(SC)c(C#N)c2=O)cc1 [Example 38, 5-cyano-4-(methylthio)-1-(4-ethylphenyl)-6-oxo-2-pyridin-3-yl-1,6-dihydropyrimidine]	207 to 209	–
CSc1nc(-c2cccnc2)n(-c2ccc(C)c(C)c2)c(=O)c1C#N [Example 39, 5-cyano-4-(methylthio)-1-(3,4-dimethylphenyl)-6-oxo-2-pyridin-3-yl-1,6-dihydropyrimidine]	> 250	–
COc1ccc(-n2c(-c3cccnc3)nc(SC)c(C#N)c2=O)cc1 [Example 40, 5-cyano-4-(methylthio)-1-(4-methoxyphenyl)-6-oxo-2-pyridin-3-yl-1,6-dihydropyrimidine]	230 to 233	–
Cc1ccc(-n2c(-c3ccc(S(C)(=O)=O)cc3)nc(S(C)(=O)=O)c(C(N)=O)c2=O)cc1 [Example 44, 5-carboxamido-1-(4-methylphenyl)-4-(methylsulfonyl)-2-[4-(methylsulfonyl)phenyl]-6-oxo-1,6-dihydropyrimidine]	260 to 262	–
Cc1ccc(-n2c(-c3ccc(S(C)(=O)=O)cc3)nc(N3CCNCC3)c(C(N)=O)c2=O)cc1 [Example 45, 5-carboxamido-1-(4-methylphenyl)-2-[4-(methylsulfonyl)phenyl]-6-oxo-4-piperazin-1-yl-1,6-dihydropyrimidine]	269 to 275	–
CNc1nc(-c2ccc(S(C)(=O)=O)cc2)n(-c2ccc(C)cc2)c(=O)c1C(N)=O [Example 46, 5-carboxamido-4-(methylamino)-1-(4-methylphenyl)-2-[4-(methylsulfonyl)phenyl]-6-oxo-1,6-dihydropyrimidine]	> 300	–
Cc1ccc(-n2c(-c3ccc(S(C)(=O)=O)cc3)nc(N3CCOCC3)c(C(N)=O)c2=O)cc1 [Example 47, 5-carboxamido-1-(4-methylphenyl)-2-[4-(methylsulfonyl)phenyl]-4-morpholin-4-yl-6-oxo-1,6-dihydropyrimidine]	226 to 228	–
CS(=O)(=O)c1ccc(-n2c(-c3ccc(F)cc3)nc(S(C)(=O)=O)c(C(N)=O)c2=O)cc1 [Example 48, 5-carboxamido-2-(4-fluorophenyl)-4-(methylsulfonyl)-1-[4-(methylsulfonyl)phenyl]-6-oxo-1,6-dihydropyrimidine]	237 to 241	–
Cc1ccc(-n2c(-c3ccc(S(C)(=O)=O)cc3)nc(S(C)(=O)=O)c(C(N)=O)c2=O)cc1C [Example 51, 5-carboxamido-1-(3,4-dimethylphenyl)-4-(methylsulfonyl)-2-[4-(methylsulfonyl)phenyl]-6-oxo-1,6-dihydropyrimidine]	245 to 248	–
CS(=O)(=O)c1ccc(-n2c(-c3ccc(F)cc3)nc(O)c(C#N)c2=O)cc1 [Example 52, 5-cyano-2-(4-fluorophenyl)-4-hydroxy-1-[4-(methylsulfonyl)phenyl]-6-oxo-1,6-dihydropyrimidine]	> 285	–
Cc1ccc(-n2c(-c3ccc(S(C)(=O)=O)cc3)nc(O)c(C#N)c2=O)cc1C [Example 53, 5-cyano-1-(3,4-dimethylphenyl)-4-hydroxy-2-[4-(methylsulfonyl)phenyl]-6-oxo-1,6-dihydropyrimidine]	> 285	–
